Molecules are shown by their SMILES. A value given as a limit tells only on which side of the number the result lay.

The values that follow come from patent publication US20250154127A1, “BICYCLIC HETEROARYL COMPOUNDS AND USES THEREOF” (ETERN BIOPHARMA (SHANGHAI) CO., LTD., priority 2022, published 2025).

The test system of assay [1] is MSTO-211H cells. The assay can be described thus: Proliferation Assay (CellTiter-Glo Luminescent Cell Viability Assay). Format: cell-based. Conditions: Homo sapiens, 96 hours treatment. The procedure, abridged: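 MSTO-211H cells, 1,500/well in RPMI 1640 with 10% FBS, plated overnight, then treated 96 h with 9-point 3-fold compound series in duplicate (DMSO below 0.5%). Viability by CellTiter-Glo luminescence; inhibition relative to DMSO wells, IC50 by four-parameter fit.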

Assay [2] addresses TEAD1(210-426) binding to YAP(50-100) (Homo sapiens, UniProt P28347). The assay can be described thus: TR-FRET Assay for TEAD1(210-426) Binding to YAP(50-100). Conditions: His-TEAD 10 nM, YAP-Biotin peptide 50 nM. Summed up:
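10 nM His-TEAD1 preincubated 30 min at room temperature with compound (3-fold dilutions, 12 points, 1% DMSO), then 50 nM biotin-YAP peptide added.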

Sequence of TEAD1(210-426) binding to YAP(50-100) (P28347 209-426): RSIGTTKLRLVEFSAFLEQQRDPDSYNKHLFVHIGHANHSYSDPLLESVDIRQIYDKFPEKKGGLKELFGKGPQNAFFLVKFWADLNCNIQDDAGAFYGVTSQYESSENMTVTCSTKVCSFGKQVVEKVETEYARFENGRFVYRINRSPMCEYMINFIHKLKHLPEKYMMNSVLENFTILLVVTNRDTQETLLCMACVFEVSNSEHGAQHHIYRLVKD

On to `COc1cccc(Cn2ccc(-c3nn(-c4ccc(C(F)(F)F)cc4)c4ccccc34)cc2=O)n1` [Compound 83, 1-((6-methoxypyridin-2-yl)methyl)-4-(1-(4-(trifluoromethyl)phenyl)-1 H-indazol-3-yl)pyridin-2(1H)-one], for which the IC50 – broadly, the point on the concentration scale where inhibition reaches its midpoint – in assay [1] is at most 1000 nM; in assay [2], at most 100 nM.

In the case of `O=c1cc(-c2nn(-c3ccc(C(F)(F)F)cc3)c3ccccc23)ccn1Cc1nccc(N2CCOCC2)n1` [Compound 84, 1-((4-morpholinopyrimidin-2-yl)methyl)-4-(1-(4-(trifluoromethyl)phenyl)-1H-indazol-3-yl)pyridin-2(1H)-one], the IC50 in assay [1] is at most 1000 nM; in assay [2] it was at most 100 nM.

For the compound `O=c1cc(-c2nn(-c3ccc(C(F)(F)F)cc3)c3ccccc23)ccn1Cc1nccc(N2CC(O)C2)n1` [Compound 85, 1-((4-(3-hydroxyazetidin-1-yl)pyrimidin-2-yl)methyl)-4-(1-(4-(trifluoromethyl)phenyl)-1H-indazol-3-yl)pyridin-2(1H)-one], the 50% inhibitory concentration (IC50) in assay [1] is at most 1000 nM; in assay [2], at most 100 nM.

On to `O=c1cc(-c2nn(-c3ccc(C(F)(F)F)cc3)c3ccccc23)ccn1Cc1nccc(N2CCC(O)CC2)n1` [Compound 86, 1-((4-(4-hydroxypiperidin-1-yl)pyrimidin-2-yl)methyl)-4-(1-(4-(trifluoromethyl)phenyl)-1H-indazol-3-yl)pyridin-2(1H)-one], for which the half-maximal inhibitory concentration (IC50) was at most 1000 nM in assay [1] and at most 100 nM in assay [2].

As for `O=c1cc(-c2nn(-c3ccc(C(F)(F)F)cc3)c3ccccc23)ccn1Cc1nccc(N2CC3(COC3)C2)n1` [Compound 87, 1-((4-(2-oxa-6-azaspiro[3.3]heptan-6-yl)pyrimidin-2-yl)methyl)-4-(1-(4-(trifluoromethyl)phenyl)-1H-indazol-3-yl)pyridin-2(1H)-one], the IC50 is at most 1000 nM in assay [1] and at most 100 nM in assay [2].

In the case of `O=c1cc(-c2nn(-c3ccc(C(F)(F)F)cc3)c3ncccc23)ccn1Cc1cccnc1` [Compound 88, 1-(pyridin-3-ylmethyl)-4-(1-(4-(trifluoromethyl)phenyl)-1H-pyrazolo[3,4-b]pyridin-3-yl)pyridin-2(1H)-one], the 50% inhibitory concentration (IC50) in assay [1] is at most 1000 nM; in assay [2], at most 100 nM.

On to `O=c1cc(-c2nn(-c3ccc(C(F)(F)F)cc3)c3ccccc23)ccn1Cc1cccc(Cl)n1` [Compound 89, 1-((6-chloropyridin-2-yl)methyl)-4-(1-(4-(trifluoromethyl)phenyl)-1H-indazol-3-yl)pyridin-2(1H)-one], for which the figures for the IC50 in assay [1] and in assay [2] were at most 1000 nM and at most 100 nM, respectively.

In the case of `CO[C@H]1C[C@@H](Nc2ccnc(Cn3ccc(-c4nn(-c5ccc(C(F)(F)F)cc5)c5ccccc45)cc3=O)n2)C1` [Compound 90, 1-((4-(((1s,3s)-3-methoxycyclobutyl)amino)pyrimidin-2-yl)methyl)-4-(1-(4-(trifluoromethyl)phenyl)-1H-indazol-3-yl)pyridin-2(1H)-one], the half-inhibitory concentration (IC50) is at most 1000 nM in assay [1] and 100 to 1000 nM in assay [2].

For the compound `CO[C@H]1C[C@H](Nc2ccnc(Cn3ccc(-c4nn(-c5ccc(C(F)(F)F)cc5)c5ccccc45)cc3=O)n2)C1` [Compound 91, 1-((4-(((1r,3r)-3-methoxycyclobutyl)amino)pyrimidin-2-yl)methyl)-4-(1-(4-(trifluoromethyl)phenyl)-1H-indazol-3-yl)pyridin-2(1H)-one], the IC50 was at most 1000 nM in assay [1] and at most 100 nM in assay [2].

For `CNc1nccc(Cn2ccc(-c3nn(-c4ccc(C(F)(F)F)cc4)c4ccccc34)cc2=O)n1` [Compound 92, 1-((2-(methylamino)pyrimidin-4-yl)methyl)-4-(1-(4-(trifluoromethyl)phenyl)-1H-indazol-3-yl)pyridin-2(1H)-one], the half-inhibitory concentration (IC50) was at most 1000 nM in assay [1] and at most 100 nM in assay [2].

As to `O=c1cc(-c2nn(-c3ccc(C(F)(F)F)cc3)c3ccccc23)ccn1Cc1ccnc(OCCO)n1` [Compound 93, 1-((2-(2-hydroxyethoxy)pyrimidin-4-yl)methyl)-4-(1-(4-(trifluoromethyl)phenyl)-1H-indazol-3-yl)pyridin-2(1H)-one], the results for the IC50 in assay [1] and in assay [2] were at most 1000 nM and at most 100 nM, respectively.

`CN(CCO)c1nccc(Cn2ccc(-c3nn(-c4ccc(C(F)(F)F)cc4)c4ccccc34)cc2=O)n1` [Compound 94, 1-((2-((2-hydroxyethyl)(methyl)amino)pyrimidin-4-yl)methyl)-4-(1-(4-(trifluoromethyl)phenyl)-1H-indazol-3-yl)pyridin-2(1H)-one]: the values for the IC50 in assay [1] and in assay [2] were at most 1000 nM and at most 100 nM, respectively.

On to `O=c1cc(-c2nn(-c3ccc(C(F)(F)F)cc3)c3ccccc23)ccn1Cc1ccnc(N2CC(O)C2)n1` [Compound 95, 1-((2-(3-hydroxyazetidin-1-yl)pyrimidin-4-yl)methyl)-4-(1-(4-(trifluoromethyl)phenyl)-1H-indazol-3-yl)pyridin-2(1H)-one], for which the results for the IC50 in assay [1] and in assay [2] were at most 1000 nM and at most 100 nM, respectively.

On to `Cn1nc(Cn2ccc(-c3nn(-c4ccc(C(F)(F)F)cc4)c4ccccc34)cc2=O)ccc1=O` [Compound 96, 2-methyl-6-((2-oxo-4-(1-(4-(trifluoromethyl)phenyl)-1H-indazol-3-yl)pyridin-1(2H)-yl)methyl)pyridazin-3(2H)-one], for which the IC50 in assay [1] was 1000 to 10000 nM; in assay [2], at most 100 nM.

Consider `CNc1nccc(Cn2ccc(-c3nn(-c4ccc(C(F)(F)F)cc4)c4ncccc34)cc2=O)n1` [Compound 97, 1-((2-(methylamino)pyrimidin-4-yl)methyl)-4-(1-(4-(trifluoromethyl)phenyl)-1H-pyrazolo[3,4-b]pyridin-3-yl)pyridin-2(1H)-one], for which the 50% inhibitory concentration (IC50) is at most 1000 nM in assay [1] and at most 100 nM in assay [2].

Regarding `CNc1cc(Cn2ccc(-c3nn(-c4ccc(C(F)(F)F)cc4)c4ncccc34)cc2=O)ncn1` [Compound 98, 1-((6-(methylamino)pyrimidin-4-yl)methyl)-4-(1-(4-(trifluoromethyl)phenyl)-1H-pyrazolo[3,4-b]pyridin-3-yl)pyridin-2(1H)-one], the values for the IC50 in assay [1] and in assay [2] were at most 1000 nM and at most 100 nM, respectively.

In the case of `CNc1nccc(Cn2ccc(-c3nn(-c4ccc(C(F)(F)F)cc4)c4nccnc34)cc2=O)n1` [Compound 99, 1-((2-(methylamino)pyrimidin-4-yl)methyl)-4-(1-(4-(trifluoromethyl)phenyl)-1H-pyrazolo[3,4-b]pyrazin-3-yl)pyridin-2(1H)-one], the IC50 was at most 1000 nM in assay [1] and at most 100 nM in assay [2].

Turning to `O=c1cc(-c2nn(-c3ccc(C(F)(F)F)cc3)c3nccnc23)ccn1Cc1nccc(O)n1` [Compound 100, 1-((4-hydroxypyrimidin-2-yl)methyl)-4-(1-(4-(trifluoromethyl)phenyl)-1H-pyrazolo[3,4-b]pyrazin-3-yl)pyridin-2(1H)-one], the half-inhibitory concentration (IC50) in assay [1] is at most 1000 nM; in assay [2] it was at most 100 nM.

As to `O=c1cc(-c2nn(-c3ccc(C(F)(F)F)cc3)c3ncccc23)ccn1Cc1nccc(O)n1` [Compound 101, 1-((4-hydroxypyrimidin-2-yl)methyl)-4-(1-(4-(trifluoromethyl)phenyl)-1H-pyrazolo[3,4-b]pyridin-3-yl)pyridin-2(1H)-one], the half-maximal inhibitory concentration (IC50) in assay [1] was at most 1000 nM; in assay [2], at most 100 nM.

As to `O=c1cc(-c2nn(-c3ccc(C(F)(F)F)cc3)c3nccnc23)ccn1Cc1ccnc(NCCO)n1` [Compound 102, 1-((2-((2-hydroxyethyl)amino)pyrimidin-4-yl)methyl)-4-(1-(4-(trifluoromethyl)phenyl)-1H-pyrazolo[3,4-b]pyrazin-3-yl)pyridin-2(1H)-one], the concentration for half-maximal inhibition (IC50) in assay [1] is at most 1000 nM; in assay [2], at most 100 nM.

For the compound `CNc1ccnc(Cn2ccc(-c3nn(-c4ccc(C(F)(F)F)cc4)c4nccnc34)cc2=O)n1` [Compound 104, 1-((4-(methylamino)pyrimidin-2-yl)methyl)-4-(1-(4-(trifluoromethyl)phenyl)-1H-pyrazolo[3,4-b]pyrazin-3-yl)pyridin-2(1H)-one], the half-maximal inhibitory concentration (IC50) in assay [1] is at most 1000 nM; in assay [2] it was 100 to 1000 nM.

In the case of `COc1ccnc(Cn2ccc(-c3nn(-c4ccc(C(F)(F)F)cc4)c4nccnc34)cc2=O)n1` [Compound 105, 1-((4-methoxypyrimidin-2-yl)methyl)-4-(1-(4-(trifluoromethyl)phenyl)-1H-pyrazolo[3,4-b]pyrazin-3-yl)pyridin-2(1H)-one], the IC50 in assay [1] is at most 1000 nM; in assay [2] it was 100 to 1000 nM.

As for `CN(CCO)c1nccc(Cn2ccc(-c3nn(-c4ccc(C(F)(F)F)cc4)c4nccnc34)cc2=O)n1` [Compound 106, 1-((2-((2-hydroxyethyl)(methyl)amino)pyrimidin-4-yl)methyl)-4-(1-(4-(trifluoromethyl)phenyl)-1H-pyrazolo[3,4-b]pyrazin-3-yl)pyridin-2(1H)-one], the IC50 in assay [1] is at most 1000 nM; in assay [2], at most 100 nM.

On to `CN(CCO)c1ccnc(Cn2ccc(-c3nn(-c4ccc(C(F)(F)F)cc4)c4nccnc34)cc2=O)n1` [Compound 107, 1-((4-((2-hydroxyethyl)(methyl)amino)pyrimidin-2-yl)methyl)-4-(1-(4-(trifluoromethyl)phenyl)-1H-pyrazolo[3,4-b]pyrazin-3-yl)pyridin-2(1H)-one], for which the concentration for half-maximal inhibition (IC50) is at most 1000 nM in assay [1] and at most 100 nM in assay [2].

On to `Nc1nccc(Cn2ccc(-c3nn(-c4ccc(C(F)(F)F)cc4)c4ncccc34)cc2=O)n1` [Compound 109, 1-((2-aminopyrimidin-4-yl)methyl)-4-(1-(4-(trifluoromethyl)phenyl)-1H-pyrazolo[3,4-b]pyridin-3-yl)pyridin-2(1H)-one], for which the half-inhibitory concentration (IC50) was at most 1000 nM in assay [1] and at most 100 nM in assay [2].

Regarding `Nc1ccnc(Cn2ccc(-c3nn(-c4ccc(C(F)(F)F)cc4)c4ncccc34)cc2=O)n1` [Compound 110, 1-((4-aminopyrimidin-2-yl)methyl)-4-(1-(4-(trifluoromethyl)phenyl)-1H-pyrazolo[3,4-b]pyridin-3-yl)pyridin-2(1H)-one], the IC50 in assay [1] was at most 1000 nM; in assay [2], at most 100 nM.
